Measured values reported in US8865623B2, “Herbicidally active cyclic diones and derivatives thereof, processes for their preparation, compositions, and method of controlling weeds” (Syngenta Limited, priority 2009, dated 2014).

What was measured:
Assay type in all cases: in vivo
[1] = tested on: Lolium perenne (LOLPE); test: Post-emergence herbicidal activity, glasshouse pot test; details: Lolium perenne, 312 h, rate 250 g/ha, evaluated after 13 days, read-out: Post-emergence activity LOLPE (100=total damage to plant; 0=no damage to plant)
Procedure, shortened: (§1)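 Pot-grown plants in standard soil received a spray one day post-sowing (pre-emergence) or after eight days' growth (post-emergence). Scoring took place 13 days later on a 0–100 scale, 100 meaning total damage.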

[2] = tested on: Alopecurus myosuroides (ALOMY); test: as above; details: Alopecurus myosuroides, 312 h, rate 250 g/ha, evaluated after 13 days, read-out: Post-emergence activity ALOMY (100=total damage to plant; 0=no damage to plant)
Procedure, shortened: as §1

[3] = tested on: Echinochloa crus-galli (ECHCG); test: as above; details: Echinochloa crus-galli, 312 h, rate 250 g/ha, evaluated after 13 days, read-out: Post-emergence activity ECHCG (100=total damage to plant; 0=no damage to plant)
Procedure, shortened: as §1

[4] = tested on: Avena fatua (AVEFA); test: as above; details: Avena fatua, 312 h, rate 250 g/ha, evaluated after 13 days, read-out: Post-emergence activity AVEFA (100=total damage to plant; 0=no damage to plant)
Procedure, shortened: as §1

[5] = tested on: Lolium perenne (LOLPE); test: Pre-emergence herbicidal activity, glasshouse pot test; details: Lolium perenne, 312 h, Rate 250 g/ha, evaluated after 13 days, read-out: Pre-emergence activity LOLPE (100=total damage to plant; 0=no damage to plant)
Procedure, shortened: as §1

[6] = tested on: Alopecurus myosuroides (ALOMY); test: as above; details: Alopecurus myosuroides, 312 h, Rate 250 g/ha, evaluated after 13 days, read-out: Pre-emergence activity ALOMY (100=total damage to plant; 0=no damage to plant)
Procedure, shortened: as §1

[7] = tested on: Echinochloa crus-galli (ECHCG); test: as above; details: Echinochloa crus-galli, 312 h, Rate 250 g/ha, evaluated after 13 days, read-out: Pre-emergence activity ECHCG (100=total damage to plant; 0=no damage to plant)
Procedure, shortened: as §1

[8] = tested on: Avena fatua (AVEFA); test: as above; details: Avena fatua, 312 h, Rate 250 g/ha, evaluated after 13 days, read-out: Pre-emergence activity AVEFA (100=total damage to plant; 0=no damage to plant)
Procedure, shortened: as §1

SMILES | pest or weed control at 250 g/ha [1] [%] | pest or weed control at 250 g/ha [2] [%] | pest or weed control at 250 g/ha [3] [%] | pest or weed control at 250 g/ha [4] [%] | pest or weed control at 250 g/ha ([5]; pre-emergence) [%] | pest or weed control at 250 g/ha ([6]; pre-emergence) [%] | pest or weed control at 250 g/ha ([7]; pre-emergence) [%] | pest or weed control at 250 g/ha ([8]; pre-emergence) [%] | pest or weed control at 250 g/ha ([1]; glasshouse) [%] | pest or weed control at 250 g/ha ([2]; glasshouse) [%] | pest or weed control at 250 g/ha ([3]; glasshouse) [%] | pest or weed control at 250 g/ha ([4]; glasshouse) [%] | pest or weed control at 250 g/ha ([5]; pre-emergence spray) [%] | pest or weed control at 250 g/ha ([6]; pre-emergence spray) [%] | pest or weed control at 250 g/ha ([7]; pre-emergence spray) [%] | pest or weed control at 250 g/ha ([8]; pre-emergence spray) [%]
CC1(C)OC(C)(C)C(O)=C(c2cc(Oc3ccc(Br)cc3Cl)ccc2C2CC2)C1=O [Example A-352] | 90 | 90 | 100 | 70 | 90 | 70 | 100 | 20 |  |  |  |  |  |  |  | 
CCc1ccc(Oc2nc3ccc(Cl)cc3s2)cc1C1=C(O)CC2(CCOCC2)CC1=O [Example A-304] |  |  |  |  |  |  |  |  | 100 | 100 | 100 | 100 | 70 | 80 | 100 | 80
CCc1ccc(Oc2cc(C(F)(F)F)ccn2)cc1C1=C(O)C(C)(C)OC(C)(C)C1=O [Example A-153] |  |  |  |  |  |  |  |  | 30 | 70 | 90 | 80 | 60 | 50 | 100 | 20
CCc1ccc(Oc2ncccc2C(F)(F)F)cc1C1=C(O)C(C)(C)OC(C)(C)C1=O [Example A-154] |  |  |  |  |  |  |  |  | 20 | 20 | 60 | 10 | 10 | 0 | 20 | 0
CCc1ccc(Oc2ccc3cc(Cl)ccc3n2)cc1C1=C(O)CC2(CCOCC2)CC1=O [Example A-191] |  |  |  |  |  |  |  |  | 100 | 100 | 100 | 100 | 60 | 40 | 90 | 40
CCc1ccc(Oc2ccc(Br)cc2C#N)cc1C1=C(O)C(C)(C)OC(C)(C)C1=O [Example A-225] |  |  |  |  |  |  |  |  | 70 | 60 | 90 | 50 | 10 | 0 | 60 | 0
CCc1ccc(Oc2ccc(Cl)cn2)cc1C1=C(O)C(C)(C)OC(C)(C)C1=O [Example A-147] |  |  |  |  |  |  |  |  | 90 | 80 | 100 | 70 | 80 | 50 | 100 | 20
CCc1ccc(Oc2nc3ccc(OC)cc3s2)cc1C1=C(O)C(C)(C)OC(C)(C)C1=O [Example A-214] |  |  |  |  |  |  |  |  | 100 | 100 | 100 | 70 | 40 | 50 | 90 | 30
CCc1ccc(Oc2ccc(Cl)cc2Cl)cc1C1=C(O)CC2(CCOCC2)CC1=O [Example A-190] |  |  |  |  |  |  |  |  | 90 | 80 | 100 | 90 | 50 | 30 | 80 | 30
